SMILES strings stand for the structures. pIC50, pKd: −log10 of the molar value. Calls of active or inactive are those of the source. No cut-off for these calls is given here.

This note sets out measurements from ChEMBL document CHEMBL5046270, “A Selective and Orally Bioavailable Quinoline-6-Carbonitrile-Based Inhibitor of CDK8/19 Mediator Kinase with Tumor-Enriched Pharmacokinetics” (J Med Chem, 2022).

The test system of data set [1] is HEK293. The data set can be described thus: Inhibition of TNFalpha induced CDK8/19 dependent NF kappa B activity CDK8/19 in double knockout HEK293 cell for 3 hrs by qt-PCR analysis. Format: functional, cell-based. To be noted: Homo sapiens.
Data set [2] is described as follows: Cmax in tumor of BALB/c mouse xenografted with mouse CT26 cells at 2.5 mg/kg, iv by LC-MS/MS analysis. Format: ADME, organism-based, Neoplasm. Also on record: route intravenous, dose 2.5 mg/kg.
Data set [3] is described as follows: Plasma C0 in BALB/c mouse xenografted with mouse CT26 cells at 2.5 mg/kg, iv by LC-MS/MS analysis. It is filed as ADME, organism-based.
Data set [4] is described as follows: Half life in plasma of BALB/c mouse xenografted with mouse CT26 cells at 100 mg/kg, po by LC-MS/MS analysis. It is filed as ADME, organism-based.
Data set [5] in a line: Inhibition of NF kappa B dependent CDK8/CDK19 in HEK293 cell incubated for 3 hrs in presence of TNF-alpha by Spectra max microtitre plate reader. Format: cell-based. To be noted: Homo sapiens, HEK293, 3 h.
Data set [6] in a line: Cmax in plasma of BALB/c mouse xenografted with mouse CT26 cells at 100 mg/kg, po by LC-MS/MS analysis. It is filed as ADME, organism-based. Also on record: route oral, dose 100 mg/kg.
Data set [7] deals with CDK8/Cyclin C (Homo sapiens) (UniProt P49336+P24863). The data set can be described thus: Binding affinity to kinase tracer 236 binding to His tagged recombinant human CDK8/cyclinC assessed as rate constant (kon) by TR FRET based assay. Format: protein-complex assay.
A short description of data set [8]: Metabolic stability in human hepatocyte assessed as intrinsic clearance at 2 uM measured per 10^6 by LC-MS/MS analysis. To be noted: hepatocytes. It is filed as ADME, cell-based.
Data set [9] in a line: Half life in tumor of BALB/c mouse xenografted with mouse CT26 cells at 100 mg/kg, po by LC-MS/MS analysis. It is filed as ADME, organism-based, Neoplasm.
The next data set has as its system CT26. The data set can be described thus: Downregulation of KLF2 gene expression in BALB/c mouse xenografted with mouse CT26 cells at 100 mg/kg, po 2 to 12 hrs […]. The note with it: time 2-12 hrs, TDE = time-dependent effect. It is filed as functional, organism-based.
Data set [10] has as its system HEK293. The data set is described as follows: Effect of compound on HEK293 cells assessed as expression of mRNA in NFkappaB induced CXCL8 gene in presence of pretreatment with TNFalpha for 2 hr by qPCR analysis. It is filed as functional, cell-based. The note with it: Homo sapiens.
Data set [11] has as its target Cyclin-C/Cyclin-dependent kinase 19 (Homo sapiens, UniProt Q9BWU1). The data set can be described thus: Binding affinity to recombinant human CDK19/cyclinC assessed as dissociation constant by TR FRET based assay. Format: protein-complex assay.
Data set [12] has as its target T1, Mitogen-activated protein kinase kinase kinase kinase 2 (Homo sapiens) (UniProt Q12851).
T1 sequence (whole entry): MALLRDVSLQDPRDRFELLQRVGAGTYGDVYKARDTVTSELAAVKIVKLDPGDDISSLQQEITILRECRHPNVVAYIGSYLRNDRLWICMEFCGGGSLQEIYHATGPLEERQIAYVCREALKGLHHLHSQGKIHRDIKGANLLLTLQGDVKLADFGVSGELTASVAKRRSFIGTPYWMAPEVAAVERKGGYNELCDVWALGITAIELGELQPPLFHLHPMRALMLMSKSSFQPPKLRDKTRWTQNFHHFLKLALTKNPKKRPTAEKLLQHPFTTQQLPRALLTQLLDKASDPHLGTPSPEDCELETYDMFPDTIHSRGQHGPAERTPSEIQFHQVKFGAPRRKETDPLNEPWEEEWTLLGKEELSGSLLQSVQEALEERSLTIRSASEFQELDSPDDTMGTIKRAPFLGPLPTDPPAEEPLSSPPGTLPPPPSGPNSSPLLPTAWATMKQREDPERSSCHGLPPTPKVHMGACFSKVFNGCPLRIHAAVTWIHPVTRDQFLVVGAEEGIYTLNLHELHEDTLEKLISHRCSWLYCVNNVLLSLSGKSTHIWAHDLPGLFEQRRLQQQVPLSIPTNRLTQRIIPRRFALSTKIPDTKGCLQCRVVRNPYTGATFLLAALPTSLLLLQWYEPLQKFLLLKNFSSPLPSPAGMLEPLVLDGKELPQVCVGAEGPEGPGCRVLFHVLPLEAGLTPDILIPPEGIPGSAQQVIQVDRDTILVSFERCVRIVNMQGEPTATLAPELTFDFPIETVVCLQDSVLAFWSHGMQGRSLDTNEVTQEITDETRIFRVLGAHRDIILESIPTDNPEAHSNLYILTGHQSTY
The data set is described as follows: Inhibition of human MAP4K2 at 2 uM by competition binding assay relative to control. The note with it: values are per cent of control.

In data set [13] the target is Cyclin-dependent kinase 19 (Homo sapiens) (UniProt Q9BWU1). The data set is described as follows: Inhibition of human CDK19 at 2 uM by competition binding assay relative to control. To be noted: values are per cent of control.
For data set [14], the target named is Cyclin-C/Cyclin-dependent kinase 19 (Homo sapiens) (UniProt Q9BWU1+P24863). The data set can be described thus: Binding affinity to recombinant human CDK19/cyclinC assessed as mean residence time by TR FRET based assay. It is filed as protein-complex assay.
Data set [15] can be described thus: Half life in plasma of BALB/c mouse xenografted with mouse CT26 cells at 2.5 mg/kg, iv by LC-MS/MS analysis. Format: ADME, organism-based.
A short description of data set [16]: Cmax in tumor of BALB/c mouse xenografted with mouse CT26 cells at 100 mg/kg, po by LC-MS/MS analysis. Format: ADME, organism-based, Neoplasm. Also on record: route oral, dose 100 mg/kg.
Data set [17] has as its target T2, Serine/threonine-protein kinase haspin (Homo sapiens) (UniProt Q8TF76).
T2 sequence (whole entry): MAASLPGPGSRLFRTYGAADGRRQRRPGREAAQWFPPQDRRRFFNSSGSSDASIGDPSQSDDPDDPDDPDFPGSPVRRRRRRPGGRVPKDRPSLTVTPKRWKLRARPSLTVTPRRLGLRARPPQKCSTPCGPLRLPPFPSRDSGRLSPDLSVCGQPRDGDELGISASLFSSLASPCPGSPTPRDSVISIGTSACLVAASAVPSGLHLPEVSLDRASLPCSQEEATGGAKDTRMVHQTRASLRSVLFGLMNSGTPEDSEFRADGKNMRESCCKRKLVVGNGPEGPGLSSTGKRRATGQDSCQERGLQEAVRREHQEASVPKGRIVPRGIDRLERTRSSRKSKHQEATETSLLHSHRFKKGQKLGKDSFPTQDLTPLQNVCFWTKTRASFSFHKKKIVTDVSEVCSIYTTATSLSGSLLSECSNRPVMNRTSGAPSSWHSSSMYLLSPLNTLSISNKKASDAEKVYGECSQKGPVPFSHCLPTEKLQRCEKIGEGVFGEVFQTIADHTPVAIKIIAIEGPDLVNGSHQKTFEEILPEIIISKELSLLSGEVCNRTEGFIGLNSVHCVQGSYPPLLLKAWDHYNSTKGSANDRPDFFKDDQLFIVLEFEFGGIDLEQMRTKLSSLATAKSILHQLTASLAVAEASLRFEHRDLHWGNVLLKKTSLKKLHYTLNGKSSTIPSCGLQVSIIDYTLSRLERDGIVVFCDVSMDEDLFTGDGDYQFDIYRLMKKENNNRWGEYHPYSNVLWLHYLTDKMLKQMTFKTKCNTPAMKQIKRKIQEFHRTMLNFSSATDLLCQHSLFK
The data set can be described thus: Inhibition of human HASPIN at 2 uM by competition binding assay relative to control. To be noted: values are per cent of control.

Data set [18] in a line: AUC (0-24hrs) in tumor of BALB/c mouse xenografted with mouse CT26 cells at 100 mg/kg, po by LC-MS/MS analysis. Format: ADME, organism-based, Neoplasm. Also on record: time < 24 hr, route oral, dose 100 mg/kg.

Cyclin-C/Cyclin-dependent kinase 19, sequence (Q9BWU1 whole entry): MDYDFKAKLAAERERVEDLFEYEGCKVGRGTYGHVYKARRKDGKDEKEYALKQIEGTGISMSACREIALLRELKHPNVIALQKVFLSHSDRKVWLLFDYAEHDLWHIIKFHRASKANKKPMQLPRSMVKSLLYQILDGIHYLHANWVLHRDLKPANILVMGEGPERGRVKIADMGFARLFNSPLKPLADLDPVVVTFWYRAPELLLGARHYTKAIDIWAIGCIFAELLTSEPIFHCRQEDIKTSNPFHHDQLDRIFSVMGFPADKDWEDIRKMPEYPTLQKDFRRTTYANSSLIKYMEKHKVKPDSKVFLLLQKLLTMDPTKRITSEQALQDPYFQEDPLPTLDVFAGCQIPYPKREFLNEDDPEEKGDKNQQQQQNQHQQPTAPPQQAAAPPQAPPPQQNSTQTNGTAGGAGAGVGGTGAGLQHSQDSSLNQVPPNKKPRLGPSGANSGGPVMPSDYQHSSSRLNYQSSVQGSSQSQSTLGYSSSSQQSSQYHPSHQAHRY
Cyclin-C/Cyclin-dependent kinase 19, sequence (P24863 whole entry, further chain): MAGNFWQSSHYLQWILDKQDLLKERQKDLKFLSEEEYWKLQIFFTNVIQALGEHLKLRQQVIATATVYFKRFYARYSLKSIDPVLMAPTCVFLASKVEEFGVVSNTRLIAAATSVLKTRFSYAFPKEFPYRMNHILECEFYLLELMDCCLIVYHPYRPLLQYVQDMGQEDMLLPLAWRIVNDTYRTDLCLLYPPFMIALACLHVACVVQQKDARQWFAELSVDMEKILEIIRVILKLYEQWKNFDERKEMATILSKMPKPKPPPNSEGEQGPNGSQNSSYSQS
Cyclin-dependent kinase 19 (Homo sapiens), sequence (Q9BWU1 whole entry): as the sequence (Q9BWU1 whole entry) above

Take `CN1CCN(C(=O)c2ccc3cc(CCNc4ccnc5ccc(C#N)cc45)ccc3c2)CC1`: the result in the data set on HEK293 [1] was inactive. For the same molecule, the Cmax in data set [2] amounted to 488 ng/mL; in [6] it was 144 ng/mL; in [16], 5730 ng/mL. The molecule also returned a C0 in [3] of 503 ng/mL. In addition, the half-life was 3.53 h in data set [4], 7.27 h in data set [9] and 0.75 h in [15]. In data set [5], the negative-log IC50 (pIC50) was 7.25. Further, the K in data set [7] was 8.78 10^6/M/s. Besides, the CLH in [8] worked out at 0.00639 mL/min. Also, the Activity result in the data set on CT26 was “Tde”. Moreover, the result in the data set on HEK293 [10] was Active. Also, in data set [11], the pKd was 8.54. The residual binding, % of control in data set [12] was 29%; in data set [13] it was 13%; in data set [17] it was 29%. Besides, in [14], the MRT came out at 4.25 min. Besides, in [18], the AUC(0-t) at 24 h stood at 88600 ng·h/mL.
